Data set [1] is described as follows: Particle size distribution (Malvern mastersizer). It counts as physicochemical. Conditions: after jet mill micronization, Example 4. The source says: The particle size of the darunavir ethanolate obtained by the process of present invention can be determined by any method known in the art such as laser diffraction, sieve analysis, microscope observation, sedimentation etc. Malvern mastersizer is an instrument employed for particle size determination in the present invention.

A further data set can be described thus: Bulk and tapped density. It counts as physicochemical. The conditions noted are these: after jet mill micronization, Example 4.

On to `CC(C)CN(C[C@@H](O)[C@H](Cc1ccccc1)NC(=O)O[C@H]1CO[C@H]2OCC[C@H]21)S(=O)(=O)c1ccc(N)cc1` [darunavir ethanolate, Darunavir ethanolate], for which, in data set [1], the “Particle size distribution d0.1” value is on record as 2 μm, the “Particle size distribution d0.5” value was determined as 18 μm and the “Particle size distribution d0.9” value is 97 μm. Besides, in the data set “Bulk and tapped density”, the Bulk density was 0.42 g/mL and the Tapped density was found to be 0.72 g/mL.

For the origin of these results see US9062067B2, “Process for preparation of darunavir and darunavir ethanolate of fine particle size” (Lupin Limited, priority 2009, dated 2015).
